From patent US20260285850A1, “SUBSTITUTED OXAZOLIDINONES AND IMIDAZOLINONES AS HERBICIDES” (FMC CORPORATION, priority 2023, published 2026)

Key:
Assay type in all cases: in vivo
[1] = system: palmer (palmer amaranth, palmer pigweed, Amaranthus palmeri); assay: Test A postemergence application, visual injury rating 0-100
How it was run: (§1)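 Plants were grown in a loam soil-sand blend and treated with test chemical in a non-phytotoxic solvent mixture containing surfactant, either sprayed on soil preemergence or applied postemergence to 2-10 cm plants. After 10 days in a greenhouse, injury was scored visually against untreated controls, 0 meaning no effect and 100 complete control.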

[2] = system: kochia (Bassia scoparia); assay: as above
How it was run: as §1

[3] = system: galium (catchweed bedstraw, Galium aparine); assay: as above
How it was run: as §1

[4] = system: ryegrass, Italian (italian ryegrass, Lolium multiflorum); assay: as above
How it was run: as §1

[5] = system: ragweed (common ragweed, Ambrosia artemisiifolia); assay: as above
How it was run: as §1

[6] = system: oat, wild (wild oat, Avena fatua); assay: as above
How it was run: as §1

[7] = system: horseweed (Erigeron canadensis); assay: as above
How it was run: as §1

[8] = system: soybean (Glycine max); assay: as above
How it was run: as §1

[9] = system: blackgrass (Alopecurus myosuroides); assay: as above
How it was run: as §1

[10] = system: barnyardgrass (Echinochloa crus-galli); assay: as above
How it was run: as §1

[11] = system: corn (Zea mays); assay: as above
How it was run: as §1

[12] = system: green foxtail (Setaria viridis); assay: as above
How it was run: as §1

[13] = system: wheat (Triticum aestivum); assay: as above
How it was run: as §1

[14] = system: rice (Oryza sativa); assay: Test B flooded paddy test, visual plant response rating 0-100; conditions: 250 g ai/ha, Flood, applied to paddy water, evaluated after 13 days
How it was run: (§2)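 Visual scores versus untreated controls were recorded 13 days after treatment of greenhouse-held plants. At the 2-leaf stage, pots were flooded 3 cm above the soil surface and compounds added straight to the water.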

[15] = system: sedge, umbrella (small-flower umbrella sedge, Cyperus difformis); assay: as above; conditions: 250 g ai/ha, Flood, applied to paddy water, evaluated after 13 days
How it was run: as §2

[16] = system: barnyardgrass (Echinochloa crusgalli); assay: as above; conditions: 250 g ai/ha, Flood, applied to paddy water, evaluated after 13 days
How it was run: as §2

[17] = system: ducksalad (Heteranthera limosa); assay: as above; conditions: 250 g ai/ha, Flood, applied to paddy water, evaluated after 13 days
How it was run: as §2

[18] = system: palmer (palmer amaranth, palmer pigweed, Amaranthus palmeri); assay: Test A preemergence soil spray, visual injury rating 0-100; conditions: 10 days
How it was run: as §1

[19] = system: kochia (Bassia scoparia); assay: as above; conditions: 10 days
How it was run: as §1

[20] = system: ryegrass, Italian (italian ryegrass, Lolium multiflorum); assay: as above; conditions: 10 days
How it was run: as §1

[21] = system: ragweed (common ragweed, Ambrosia artemisiifolia); assay: as above; conditions: 10 days
How it was run: as §1

[22] = system: oat, wild (wild oat, Avena fatua); assay: as above; conditions: 10 days
How it was run: as §1

[23] = system: soybean (Glycine max); assay: as above; conditions: 10 days
How it was run: as §1

[24] = system: blackgrass (Alopecurus myosuroides); assay: as above; conditions: 10 days
How it was run: as §1

[25] = system: barnyardgrass (Echinochloa crus-galli); assay: as above; conditions: 10 days
How it was run: as §1

[26] = system: corn (Zea mays); assay: as above; conditions: 10 days
How it was run: as §1

[27] = system: green foxtail (Setaria viridis); assay: as above; conditions: 10 days
How it was run: as §1

[28] = system: wheat (Triticum aestivum); assay: as above; conditions: 10 days
How it was run: as §1

[29] = 62 g ai/ha, postemergence, 10 days, 0 = no effect, 100 = complete control
[30] = Postemergence, 16 g ai/ha, greenhouse 10 days, 0 no effect, 100 complete control
[31] = 62 g ai/ha, 0 = no effect, 100 = complete control

COC(=O)C1C=CC(NC(=O)C2(C)CN(c3cc(Cl)c(F)c(Cl)c3)C(=O)O2)C1 (stereo not shown) [Compound 150]
Pigweed, Palmer plant response rating (0-100) [1, 29]: 60 | Pigweed, Palmer plant response rating (0 to 100 scale) [1, 30]: 40 | Kochia plant response rating (0-100) [2, 29]: 70 | Kochia plant response rating (0 to 100 scale) [2, 30]: 20 | Galium plant response rating (0-100) [3, 29]: 80 | Galium plant response rating (0 to 100 scale) [3, 30]: 70 | Ryegrass, Italian plant response rating (0-100) [4, 29]: 80 | Ryegrass, Italian plant response rating (0 to 100 scale) [4, 30]: 50 | Ragweed plant response rating (0-100) [5, 29]: 50 | Ragweed plant response rating (0 to 100 scale) [5, 30]: 0 | Oat, Wild plant response rating (0-100) [6, 29]: 90 | Oat, Wild plant response rating (0 to 100 scale) [6, 30]: 60 | Horseweed plant response rating (0-100) [7, 29]: 60 | Horseweed plant response rating (0 to 100 scale) [7, 30]: 20 | Soybean plant response rating (0-100) [8, 29]: 70 | Soybean plant response rating (0 to 100 scale) [8, 30]: 60 | Blackgrass plant response rating (0-100) [9, 29]: 90 | Blackgrass plant response rating (0 to 100 scale) [9, 30]: 80 | Barnyardgrass plant response rating (0-100) [10, 29]: 100 | Barnyardgrass plant response rating (0 to 100 scale) [10, 30]: 90 | Corn plant response rating (0-100) [11, 29]: 100 | Corn plant response rating (0 to 100 scale) [11, 30]: 100 | Foxtail, Green plant response rating (0-100) [12, 29]: 90 | Foxtail, Green plant response rating (0 to 100 scale) [12, 30]: 20 | Wheat plant response rating (0-100) [13, 29]: 90 | Wheat plant response rating (0 to 100 scale) [13, 30]: 70 | Plant response rating, Rice (0 to 100 scale, 0 is no effect and 100 is complete control) [14]: 30 | Plant response rating, Sedge, Umbrella (0 to 100 scale, 0 is no effect and 100 is complete control) [15]: 75 | Plant response rating, Barnyardgrass (0 to 100 scale, 0 is no effect and 100 is complete control) [16]: 65 | Plant response rating, Ducksalad (0 to 100 scale, 0 is no effect and 100 is complete control) [17]: 85 | Pigweed, Palmer plant response rating ([18]; 16 g ai/ha, 0 to 100 scale): 10 | Pigweed, Palmer plant response rating (0-100) [18, 31]: 90 | Kochia plant response rating ([19]; 16 g ai/ha, 0 to 100 scale): 20 | Kochia plant response rating (0-100) [19, 31]: 90 | Ryegrass, Italian plant response rating ([20]; 16 g ai/ha, 0 to 100 scale): 10 | Ryegrass, Italian plant response rating (0-100) [20, 31]: 50 | Ragweed plant response rating ([21]; 16 g ai/ha, 0 to 100 scale): 0 | Ragweed plant response rating (0-100) [21, 31]: 0 | Oat, Wild plant response rating ([22]; 16 g ai/ha, 0 to 100 scale): 0 | Oat, Wild plant response rating (0-100) [22, 31]: 10 | Soybean plant response rating ([23]; 16 g ai/ha, 0 to 100 scale): 0 | Soybean plant response rating (0-100) [23, 31]: 0 | Blackgrass plant response rating ([24]; 16 g ai/ha, 0 to 100 scale): 0 | Blackgrass plant response rating (0-100) [24, 31]: 50 | Barnyardgrass plant response rating ([25]; 16 g ai/ha, 0 to 100 scale): 0 | Barnyardgrass plant response rating (0-100) [25, 31]: 90 | Corn plant response rating ([26]; 16 g ai/ha, 0 to 100 scale): 0 | Corn plant response rating (0-100) [26, 31]: 70 | Foxtail, Green plant response rating ([27]; 16 g ai/ha, 0 to 100 scale): 0 | Foxtail, Green plant response rating (0-100) [27, 31]: 90 | Wheat plant response rating ([28]; 16 g ai/ha, 0 to 100 scale): 0 | Wheat plant response rating (0-100) [28, 31]: 80
